# Assay results taken from the METLIN SMRT retention time set (Domingo-Almenara et al. 2019).
# Test: gradient 5% acetonitrile 3 min, to 50% in 2 min, to 85% in 15 min, held 3 min, 100 µL/min
# Conditions: column: Zorbax Extend-C18 2.1 x 50 mm; eluents: water / acetonitrile, 0.1% formic acid
# Procedure, shortened: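 Mixtures of ~100 pure standards were chromatographed on a Zorbax Extend-C18 column (2.1 × 50 mm, 1.8 μm) at 100 μL/min using water and acetonitrile, each with 0.1% formic acid. Detection used a quadrupole time-of-flight mass spectrometer in positive and negative ionization mode, and data collection spanned 3 months. Retention time was obtained from adduct peaks picked computationally and each checked manually.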
row,Compound,RP-LC retention time [s]
1,O=C(Nc1nc2c(s1)COc1ccccc1-2)C1COc2ccccc2O1 (stereo not given),980
2,CCc1ccc(NC(=O)N2CCC(N3CCN(Cc4ccc(F)cc4)C(=O)C3=O)CC2)cc1,769
3,COc1ccccc1NC(=O)CSc1ccc(N2CCCC(C(=O)NC3CC3)C2)nn1 (stereo not given),618
4,CCOc1ccc2nc(NC3=NCN(Cc4cccnc4)CN3)nc(C)c2c1,580
5,COC(=O)CNC(=O)N1CCCC1c1cccc(F)c1 (stereo not given),701
6,O=C1OCC2=C1C(c1ccccc1)NC(=O)N2CC(=O)N1CCCCC1 (stereo not given),672
7,O=C(Cn1cccc(-c2nc(-c3ccc(Cl)cc3)no2)c1=O)NC1CCCC1,881
8,CNC(=O)Nc1ccc(-c2nc(N3CC4CCC(C3)O4)c3cnn(C4CCC5(CC4)OCCO5)c3n2)cc1,794
9,O=C(Cn1c(=O)oc2ccccc21)N1CC2CC(C1)c1cccc(=O)n1C2 (stereo not given),588
10,Cc1nc(S(=O)(=O)N2CCC(C(=O)N3CCN(c4ccccc4F)CC3)CC2)cn1C,719
11,O=C(C1CCN(c2nccnc2Sc2ccccc2)CC1)N1CCOCC1,798
12,CCc1ccc(S(=O)(=O)N2CCN(CCc3cn(C)c4ncccc34)CC2)cc1,668
13,COc1cccc(-n2c(=O)c(C(=O)Nc3ccccc3)c(O)c3cccnc32)c1,1220
14,O=C(c1ccc(F)c(F)c1Nc1ccc(I)cc1F)N1CC(O)([C@H]2CCCCN2)C1,822
15,CN(C)c1ccc(N2C=C(C(=O)N3CCCC3)S(=O)(=O)c3ccccc32)cc1,811
16,COc1ccc(Cl)cc1N1CC(c2nc(-c3cccs3)no2)CC1=O (stereo not given),930
17,CCc1nc2ccc(-c3noc(-c4cccs4)n3)cc2n1CC,702
18,O=C(Nc1cccc(OCc2nnc(-c3ccccc3)o2)c1)c1ccsc1,914
19,O=S(=O)(Cc1cccc(Cl)c1)NCC1CCN(Cc2ccco2)CC1,573
20,O=C(Nc1ccc(F)cc1)N1CCCC1c1nc(-c2ccccc2)no1 (stereo not given),947
21,O=C(NCc1ccc(OC(F)(F)F)cc1)C1CCCN(c2nnc3ccccn23)C1 (stereo not given),727

row,Compound,RP-LC retention time [s]
1,O=C(CN1c2ccccc2NC2=C(C(=O)CCC2)C1c1ccco1)Nc1ccc(F)cc1 (stereo not given),1070
2,Cc1ccc(-c2ncc(C(=O)Nc3cc(F)ccc3F)c(-c3ccncc3)n2)cc1,988
3,Cc1noc(C2(NC(=O)c3ccc(C)s3)CCCCC2)n1,868
4,Cn1c(C(=O)NC2CC2)cc2c1CCN(Cc1ccc(F)cc1)C2,590
5,CC(C(=O)NCc1ccco1)C1CCOCC1 (stereo not given),644
6,CCc1nnc(-c2ccc3ccn(CC(=O)Nc4cc(F)ccc4F)c3c2)o1,879
7,O=C(NCc1ccc(-c2noc(Cc3cccc(F)c3)n2)s1)C1CC1,879
8,COc1nc2ccccc2nc1N1CCCC(C(=O)Nc2cc(F)ccc2F)C1 (stereo not given),1200
9,CCCN1CCN(C(=O)C2=NN(c3ccc(C)cc3)c3ncccc3S2(=O)=O)CC1,643
10,Cc1c(Cl)cccc1Nc1ccccc1C(=O)O,1060
11,Cc1ccccc1S(=O)(=O)N1CCC(c2noc(-c3ccccn3)n2)C1 (stereo not given),900
12,COc1ccc(-c2noc(-c3nn(-c4cccc(OC)c4)ccc3=O)n2)cc1,876
13,COc1ccccc1OCc1nc(-c2ccc3ncn(C)c3c2)no1,693
14,COc1ccccc1NC(=O)N1CCC2(CC1)NC(=O)c1ccc(F)cc1N2C,745
15,O=C(c1ccc(OCCCc2cnc[nH]2)cc1)C1CC1,680
16,Cc1cc(Cl)ccc1S(=O)(=O)NCCn1c(C)cnc1C1CCC1,592
17,c1ccc(-c2nnc(-c3ccc(-n4ccnc4)nc3)o2)cc1,639
18,CC(C)Oc1ccccc1CN1CC[C@@H]2CN(S(C)(=O)=O)[C@@H]2C1,638
19,COc1ccc(-c2nnc(-c3cccnc3NCCC3=CCCCC3)o2)cc1,1330
20,COc1cccc(-n2c(N3CCC(C(=O)NCC4CC4)CC3)nc3ccsc3c2=O)c1,745
21,O=C(Cc1cccs1)N1CCN(Cc2nc(-c3ccc(Cl)cc3)cs2)CC1,754

row,Compound,RP-LC retention time [s]
1,O=C(NC1CCCCC1)N1CC(c2nnc(-c3ccncc3)o2)C2(CCOCC2)C1 (stereo not given),621
2,CS(=O)(=O)N1CCc2cc(NC(=O)Nc3ccc(Br)cc3F)ccc21,954
3,Cc1nc(N2CCN(c3ccccn3)CC2)nc2c1C(=O)CC(/C=C/c1ccccc1)C2 (stereo not given),856
4,O=S(=O)(Nc1ccc(Cl)cc1)c1c[nH]c2ncccc12,750
5,Cc1nnc2ccc(NC3CC3)nn12,628
6,Cc1ccc(CNC(=O)c2c(C)sc3ncnc(N4CCCCC4)c23)cc1,1070
7,CC(Oc1ccccc1Cl)C(=O)Nc1ccnn1Cc1cccs1 (stereo not given),913
8,COc1ccc(CC(=O)Nc2nc(S(=O)(=O)Cc3ccccc3)ns2)cc1OC,775
9,Cc1cc(C)cc(C(=O)Nc2cccn3nc(C4CCC4)nc23)c1,1070
10,COc1cc(N2CCN(C(=O)c3cnccn3)CC2)nc(C)n1,515
11,Cc1cccc(-c2nc(Cn3nnc(-c4nc(-c5ccccc5Cl)no4)c3C)c(C)o2)c1,908
12,Cc1ccc(-c2noc(CSc3nccn3-c3ccc(C)cc3)n2)cc1,1020
13,CN1C(=O)[C@H]2CN(Cc3ccc(N(C)C)cc3)C[C@H]2C1=O,525
14,CC1(C(=O)NCc2ccc(F)cc2)Cn2cnc(C(=O)N3CCOCC3)c2C(=O)N1C1CC1 (stereo not given),616
15,CCn1cc(S(=O)(=O)N2CCN(c3ccccc3)CC2)c2cccnc21,969
16,Cc1ccc(Nc2cc(C)nc3ccnn23)cc1,620
17,COc1ccc(NC(=O)C2CCN(c3cnc4nc(C)c(C)nc4c3)CC2)c(C)c1,683
18,CCn1c(=O)sc2cc(S(=O)(=O)N3CCC(C(=O)Nc4ccc(F)cc4F)CC3)ccc21,921
19,Cc1ccc(-c2nc(N)n(S(=O)(=O)c3ccc(C)cc3)n2)cc1,969
20,CCc1nnc(-c2nnc(NCCOc3ccccc3OC)c3ccccc23)o1,790
21,Cc1cc(C(=O)N2CC(C(=O)Nc3cccc(-c4csc(C)n4)c3)C2)no1,721

# Continued, values first:
row,RP-LC retention time [s],Compound
1,817,CCn1nccc1C(=O)NC1CCN(C2=NS(=O)(=O)C(c3ccc(C)cc3)=C2C)CC1
2,720,CCC(=O)N1CCc2cc(N3CC(C(=O)Nc4ccc(OC)cc4C)CC3=O)ccc21 (stereo not given)
3,738,Cc1ccc(Cl)cc1N(C)C(=O)Cn1ccc2c(=O)n(C)c(=O)n(C)c21
4,906,CCOc1ccccc1NC(=O)N1CCC(C)(C(=O)NCc2ccc(F)cc2)CC1
5,940,CC(C)CNC(=O)c1nc2cccnc2n(CC(C)C)c1=O
6,912,CCOC(=O)c1sc(NC(=O)CN2C(=O)c3ccccc3C2=O)c(SC#N)c1C
7,592,CC1CCc2nn(CC(=O)NCCCN(Cc3ccccc3)C(C)C)cc2C1 (stereo not given)
8,748,CCCC(=O)Nc1ccc2c(c1)CN(C(=O)c1ccc(Cl)cc1)C(C(=O)N(C)C)C2 (stereo not given)
9,744,Cn1nc(C(=O)N2CCCCC2)c2c1CCN(C(=O)CCC(=O)NCCC1=CCCCC1)C2
10,844,COc1cccc(CNC(=O)CN2CCN(Cc3ccc(F)cc3Cl)C2=O)c1
11,668,CCOC(=O)c1c(C)[nH]c(CCC(=O)NCCOC)c1C
12,851,CCOC(=O)c1cccc(NC(=O)C2CCCN(C(=O)C3Sc4ccccc4NC3=O)C2)c1 (stereo not given)
13,716,Cc1noc2nc(C)n(CC(=O)NCc3ccccc3)c(=O)c12
14,739,COc1cccc(CNC(=O)CN2C(=O)NC(c3ccccc3Cl)C3=C2COC3=O)c1OC (stereo not given)
15,922,Cc1ccccc1CNC(=O)CCc1conc1-c1ccc(F)cc1
16,909,CCOc1ccc(NC(=O)Nc2cc(C(C)C)c(O)cc2C)cc1
17,594,COC(=O)c1c(C)[nH]c(C(=O)N2CCC(CC(=O)NCCN3CCCCCC3)CC2)c1C
18,805,O=C(CCCNC(=O)c1cc(-c2ccco2)on1)Nc1cccc2cccnc12
19,640,Cc1cc(C)n(-c2ccc(=O)n(CCNC(=O)c3cc(C)on3)n2)n1
20,656,COc1cc(OC)cc(C(=O)NC(C)C(=O)Nc2nc3ccccc3[nH]2)c1 (stereo not given)
21,660,CCOC(=O)Cc1cc(=O)oc2cc(O)cc(O)c12
22,1140,CCCOc1ccc(CNC(=O)c2snc(C(=O)NCc3cccc(OC)c3)c2N)cc1
23,582,CCC(=O)Nc1ccc(CCc2nc3ccc(C(=O)NC4CC4)cc3[nH]2)cc1
24,788,COc1ccccc1OCCC1CCN(C(=O)CCS(=O)(=O)c2ccc3c(c2)CCN3C(C)=O)C1 (stereo not given)
25,676,COc1ccc(OC)c(CNC(=O)c2[nH]c3cc(C)sc3c2CN(C)C)c1
26,881,CCOC(=O)C(=O)Nc1ccc(SCc2nnc(-c3ccccc3)o2)cc1
27,847,COC(=O)c1cccc(NC(=O)CCc2cccc3[nH]ccc23)c1
